According to patent US20170067871A1, “HIGH-THROUGHPUT CELLULAR ANALYSIS USING MICROBUBBLE ARRAYS” (University of Rochester, priority 2015, published 2017):
Entries after “also recorded” stand apart in the source; their conditions may differ.

Experiments:
[1] = tested on: cutaneous squamous cell carcinoma cell colonies (SCC cells); assay: Drug resistance screen of squamous carcinoma cell colonies in microbubble well arrays, CalceinAM/PI live/dead staining; assay type: cell-based
Protocol: To enrich for the sphere cells, established colonies were cultured in the presence of a chemotherapeutic agent (e.g. Cisplatin). Traditional chemotherapeutic agents work by killing rapidly dividing cells, one of the main properties of most cancer cells. This means that chemotherapy also harms cells that divide rapidly under normal circumstances. Most chemotherapeutic drugs work by impairing mitosis (cell division), effectively targeting fast-dividing cells and inducing apoptosis. After Day 7 the cell culture media was changed and 10 uM or 10 nM cisplatin and incubated for 2 to 7 days, respectively. After which the chips were transferred into fresh media prior to a live/dead staining with CalceinAM/PI followed by stem cell marker analysis.

[2] = tested on: multi-cellular tumor spheroids; settings: microbubble well array based perfusion system; cited from earlier work

Structure (SMILES) | surviving sphere cells as share of initial cells seeded in the MB well array ([1]; 10 μM Cisplatin for 48 hr, CalceinAM (live) / propidium iodide (dead) staining, colonies from one or two cells per MB well) [%] | drug resistance of spheroid versus spread cell morphology (live/dead staining) ([1]; established colonies, 10 uM or 10 nM cisplatin for 2 to 7 days, respectively, CalceinAM/PI) | resistance of spheroid cells versus adherent cells to treatment [2]
N.N.[Cl][Pt][Cl] [Cisplatin] | ~5 | the spheroid cells have greater resistance in response to chemo drug than the spread cell; also recorded: sphere cells exhibit drug resistance | –
COc1cccc2c1C(=O)c1c(O)c3c(c(O)c1C2=O)C[C@@](O)(C(=O)CO)C[C@@H]3O[C@H]1C[C@H](N)[C@H](O)[C@H](C)O1 [doxorubicin] | – | – | spheroid cells are more resistant to doxorubicin treatment than adherent cells
